According to patent US12723063B2, “GIPR-agonist compounds” (Eli Lilly and Company, priority 2019, dated 2026):
*1 amine or outer side, *2 acyl side, *3 side chain or, on linkers, in order; H or OH if unused. Where a SMILES comes first, the peptide text is derived from it. Side-chain parts run from the residue outwards. [ ]: non-standard residue; d: D form. The star is where a group is joined. C20 diacid = O=C(O)CCCCCCCCCCCCCCCCCCC(=O)*; γGlu = O=C(O)[C@H](CCC(=O)[*:2])N[*:1]; αMeF = C[C@](N)(Cc1ccccc1)C(=O)O; 4Pal = N[C@@H](Cc1ccncc1)C(=O)O; αMeL = CC(C)C[C@](C)(N)C(=O)O; AEEA = NCCOCCOCC(=O)O; Aib = CC(C)(N)C(=O)O

Experiments:
Experiment in all cases: cAMP functional assay (HTRF) in HEK293 cells in presence of 0.1% casein
Format in all cases: cell-based
[1] = target: T1, human glucose-dependent insulinotropic peptide receptor (GIPR) (Homo sapiens, UniProt P48546); settings: HEK293 cells expressing human GIPR, geometric mean, read-out: hGIPR cAMP Rel EC50 nM (SEM, n)
T1 construct: expressed in transfected cells; host or cells: HEK293
T1 sequence (P48546 22-466): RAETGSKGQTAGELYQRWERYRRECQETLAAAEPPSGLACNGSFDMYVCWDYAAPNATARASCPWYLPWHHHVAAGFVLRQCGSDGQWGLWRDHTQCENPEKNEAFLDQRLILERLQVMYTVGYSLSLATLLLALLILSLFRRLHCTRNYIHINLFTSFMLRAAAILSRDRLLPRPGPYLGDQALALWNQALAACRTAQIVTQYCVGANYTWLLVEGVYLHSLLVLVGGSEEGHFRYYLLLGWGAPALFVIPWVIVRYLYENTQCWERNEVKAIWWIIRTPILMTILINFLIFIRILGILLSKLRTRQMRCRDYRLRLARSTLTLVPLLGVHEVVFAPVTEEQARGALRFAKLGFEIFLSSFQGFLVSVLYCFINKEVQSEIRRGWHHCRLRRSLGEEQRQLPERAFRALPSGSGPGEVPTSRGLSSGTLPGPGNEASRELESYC

[2] = target: T2, human GLP-1 receptor (GLP-1R) (Homo sapiens, UniProt P43220); settings: HEK293 cells expressing human GLP-1R, geometric mean, read-out: hGLP1R cAMP Rel EC50 nM (SEM, n)
T2 construct: expressed in transfected cells; host or cells: HEK293
T2 sequence (P43220 24-463): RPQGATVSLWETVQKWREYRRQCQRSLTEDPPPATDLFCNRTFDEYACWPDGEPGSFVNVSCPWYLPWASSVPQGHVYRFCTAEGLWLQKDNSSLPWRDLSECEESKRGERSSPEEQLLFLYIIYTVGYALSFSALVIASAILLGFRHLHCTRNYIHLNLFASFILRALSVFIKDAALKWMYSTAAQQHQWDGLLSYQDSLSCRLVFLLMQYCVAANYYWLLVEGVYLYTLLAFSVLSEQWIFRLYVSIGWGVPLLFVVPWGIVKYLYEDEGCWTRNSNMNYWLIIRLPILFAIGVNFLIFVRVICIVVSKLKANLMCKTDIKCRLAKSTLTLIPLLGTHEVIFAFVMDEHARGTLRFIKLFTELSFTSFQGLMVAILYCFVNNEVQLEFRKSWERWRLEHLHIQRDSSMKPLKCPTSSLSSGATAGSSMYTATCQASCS

[3] = target: T3, human glucagon receptor (GcgR) (Homo sapiens, UniProt P47871); settings: HEK293 cells expressing human GcgR, geometric mean, read-out: hGcgR cAMP Rel EC50 nM (SEM, n)
T3 construct: expressed in transfected cells; host or cells: HEK293
T3 sequence (P47871 26-477): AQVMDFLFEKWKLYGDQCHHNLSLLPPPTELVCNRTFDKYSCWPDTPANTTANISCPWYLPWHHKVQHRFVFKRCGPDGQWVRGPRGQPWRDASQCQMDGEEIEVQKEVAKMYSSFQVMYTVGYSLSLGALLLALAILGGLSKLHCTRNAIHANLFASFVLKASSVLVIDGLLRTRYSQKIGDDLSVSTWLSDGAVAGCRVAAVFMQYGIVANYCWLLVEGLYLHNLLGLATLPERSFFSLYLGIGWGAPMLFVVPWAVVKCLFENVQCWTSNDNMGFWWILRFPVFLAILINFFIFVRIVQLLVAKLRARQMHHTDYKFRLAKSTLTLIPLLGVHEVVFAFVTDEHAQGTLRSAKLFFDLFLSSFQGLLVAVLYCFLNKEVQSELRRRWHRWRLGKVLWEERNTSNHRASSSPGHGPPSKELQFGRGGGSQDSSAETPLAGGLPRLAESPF

| Compound | EC50 [1] | EC50 [2] | EC50 [3] |
| --- | --- | --- | --- |
| CC[C@H](C)[C@H](NC(=O)[C@H](Cc1ccccc1)NC(=O)[C@@H](NC(=O)CNC(=O)[C@H](CCC(=O)O)NC(=O)C(C)(C)NC(=O)[C@@H](N)Cc1ccc(O)cc1)[C@@H](C)O)C(=O)N[C@@H](CO)C(=O)N[C@@H](CC(=O)O)C(=O)N[C@@H](Cc1ccc(O)cc1)C(=O)N[C@@H](CO)C(=O)N[C@H](C(=O)N[C@@](C)(CC(C)C)C(=O)N[C@@H](CC(C)C)C(=O)N[C@@H](CC(=O)O)C(=O)N[C@@H](CCCCN)C(=O)N[C@@H](CCCCNC(=O)COCCOCCNC(=O)COCCOCCNC(=O)CC[C@H](NC(=O)CCCCCCCCCCCCCCCCCCC(=O)O)C(=O)O)C(=O)N[C@@H](Cc1c[nH]cn1)C(=O)N[C@@H](CCC(N)=O)C(=O)NC(C)(C)C(=O)N[C@@H](CC(=O)O)C(=O)N[C@@H](Cc1ccccc1)C(=O)N[C@H](C(=O)N[C@@H](CCC(=O)O)C(=O)N[C@@H](Cc1ccncc1)C(=O)N[C@@H](CC(C)C)C(=O)N[C@@H](CC(C)C)C(=O)N[C@@H](CCC(=O)O)C(=O)NCC(=O)NCC(=O)N1CCC[C@H]1C(=O)N[C@@H](CO)C(=O)N[C@@H](CO)C(=O)NCC(=O)N[C@@H](C)C(=O)N1CCC[C@H]1C(=O)N1CCC[C@H]1C(=O)N1CCC[C@H]1C(=O)N[C@@H](CO)C(N)=O)C(C)C)[C@@H](C)CC [Example 47] (H-Y[Aib]EGTFISDYSI[αMeL]LDKK([AEEA-AEEA-γGlu-C20 diacid])HQ[Aib]DFVE[4Pal]LLEGGPSSGAPPPS-NH2) | 0.0234 nM | > 5000 nM | 757 nM |
| CC[C@H](C)[C@H](NC(=O)[C@H](CO)NC(=O)[C@H](Cc1ccc(O)cc1)NC(=O)[C@H](CC(=O)O)NC(=O)[C@H](CO)NC(=O)[C@@H](NC(=O)[C@](C)(Cc1ccccc1)NC(=O)[C@@H](NC(=O)CNC(=O)[C@H](CCC(=O)O)NC(=O)C(C)(C)NC(=O)[C@@H](N)Cc1ccc(O)cc1)[C@@H](C)O)[C@@H](C)CC)C(=O)N[C@@H](C)C(=O)N[C@@H](CC(C)C)C(=O)N[C@@H](CC(=O)O)C(=O)N[C@@H](CCCCN)C(=O)N[C@@H](CCCCNC(=O)COCCOCCNC(=O)COCCOCCNC(=O)CC[C@H](NC(=O)CCCCCCCCCCCCCCCCCCC(=O)O)C(=O)O)C(=O)N[C@@H](Cc1c[nH]cn1)C(=O)N[C@@H](CCC(N)=O)C(=O)NC(C)(C)C(=O)N[C@@H](CC(=O)O)C(=O)N[C@@H](Cc1ccccc1)C(=O)N[C@H](C(=O)N[C@@H](CCC(=O)O)C(=O)N[C@@H](Cc1ccncc1)C(=O)N[C@@H](CC(C)C)C(=O)N[C@@H](CC(C)C)C(=O)N[C@@H](CCC(=O)O)C(=O)N[C@@H](CCC(N)=O)C(=O)NCC(=O)N1CCC[C@H]1C(=O)N[C@@H](CO)C(=O)N[C@@H](CO)C(=O)NCC(=O)N[C@@H](C)C(=O)N1CCC[C@H]1C(=O)N1CCC[C@H]1C(=O)N1CCC[C@H]1C(=O)N[C@@H](CO)C(N)=O)C(C)C [Example 42] (H-Y[Aib]EGT[αMeF]ISDYSIALDKK([AEEA-AEEA-γGlu-C20 diacid])HQ[Aib]DFVE[4Pal]LLEQGPSSGAPPPS-NH2) | 0.0091 nM | 815 nM | > 5000 nM |
| CC[C@H](C)[C@H](NC(=O)[C@H](Cc1ccccc1)NC(=O)[C@@H](NC(=O)CNC(=O)[C@H](CCC(=O)O)NC(=O)C(C)(C)NC(=O)[C@@H](N)Cc1ccc(O)cc1)[C@@H](C)O)C(=O)N[C@@H](CO)C(=O)N[C@@H](CC(=O)O)C(=O)N[C@@H](Cc1ccc(O)cc1)C(=O)N[C@@H](CO)C(=O)N[C@H](C(=O)N[C@@](C)(CC(C)C)C(=O)N[C@@H](CC(C)C)C(=O)N[C@@H](CC(=O)O)C(=O)N[C@@H](CCCCN)C(=O)N[C@@H](CCCCNC(=O)COCCOCCNC(=O)COCCOCCNC(=O)CC[C@H](NC(=O)CCCCCCCCCCCCCCCCCCC(=O)O)C(=O)O)C(=O)N[C@@H](Cc1c[nH]cn1)C(=O)N[C@@H](CCC(N)=O)C(=O)NC(C)(C)C(=O)N[C@@H](CCC(=O)O)C(=O)N[C@@H](Cc1ccccc1)C(=O)N[C@H](C(=O)N[C@@H](CCC(=O)O)C(=O)N[C@@H](Cc1ccncc1)C(=O)N[C@@H](CC(C)C)C(=O)N[C@@H](CC(C)C)C(=O)N[C@@H](C)C(=O)NCC(=O)NCC(=O)N1CCC[C@H]1C(=O)N[C@@H](CO)C(=O)N[C@@H](CO)C(=O)NCC(=O)N[C@@H](C)C(=O)N1CCC[C@H]1C(=O)N1CCC[C@H]1C(=O)N1CCC[C@H]1C(=O)N[C@@H](CO)C(N)=O)C(C)C)[C@@H](C)CC [Example 52] | 0.0194 nM | > 5000 nM | 337 nM |
| CC[C@H](C)[C@H](NC(=O)[C@H](CO)NC(=O)[C@H](Cc1ccc(O)cc1)NC(=O)[C@H](CC(=O)O)NC(=O)[C@H](CO)NC(=O)[C@@H](NC(=O)[C@](C)(Cc1ccccc1)NC(=O)[C@@H](NC(=O)CNC(=O)[C@H](CCC(=O)O)NC(=O)C(C)(C)NC(=O)[C@@H](N)Cc1ccc(O)cc1)[C@@H](C)O)[C@@H](C)CC)C(=O)N[C@@H](C)C(=O)N[C@@H](CC(C)C)C(=O)N[C@@H](CC(=O)O)C(=O)N[C@@H](CCCCN)C(=O)N[C@@H](CCCCNC(=O)COCCOCCNC(=O)COCCOCCNC(=O)CC[C@H](NC(=O)CCCCCCCCCCCCCCCCCCC(=O)O)C(=O)O)C(=O)N[C@@H](Cc1c[nH]cn1)C(=O)N[C@@H](CCC(N)=O)C(=O)NC(C)(C)C(=O)N[C@@H](CC(=O)O)C(=O)N[C@@H](Cc1ccccc1)C(=O)N[C@H](C(=O)N[C@@H](CCC(=O)O)C(=O)N[C@@H](Cc1ccncc1)C(=O)N[C@@H](CC(C)C)C(=O)N[C@@H](CC(C)C)C(=O)N[C@@H](CCC(=O)O)C(=O)NCC(=O)NCC(=O)N1CCC[C@H]1C(=O)N[C@@H](CO)C(=O)N[C@@H](CO)C(=O)NCC(=O)N[C@@H](C)C(=O)N1CCC[C@H]1C(=O)N1CCC[C@H]1C(=O)N1CCC[C@H]1C(=O)N[C@@H](CO)C(N)=O)C(C)C [Example 44] (H-Y[Aib]EGT[αMeF]ISDYSIALDKK([AEEA-AEEA-γGlu-C20 diacid])HQ[Aib]DFVE[4Pal]LLEGGPSSGAPPPS-NH2) | 0.0084 nM | 1180 nM | > 5000 nM |
| CC[C@H](C)[C@H](NC(=O)[C@H](Cc1ccccc1)NC(=O)[C@@H](NC(=O)CNC(=O)[C@H](CCC(=O)O)NC(=O)C(C)(C)NC(=O)[C@@H](N)Cc1ccc(O)cc1)[C@@H](C)O)C(=O)N[C@@H](CO)C(=O)N[C@@H](CC(=O)O)C(=O)N[C@@H](Cc1ccc(O)cc1)C(=O)N[C@@H](CO)C(=O)N[C@H](C(=O)N[C@@](C)(CC(C)C)C(=O)N[C@@H](CC(C)C)C(=O)N[C@@H](CC(=O)O)C(=O)N[C@@H](CCCCN)C(=O)N[C@@H](CCCCNC(=O)COCCOCCNC(=O)COCCOCCNC(=O)CC[C@H](NC(=O)CCCCCCCCCCCCCCCCC(=O)O)C(=O)O)C(=O)N[C@@H](Cc1c[nH]cn1)C(=O)N[C@@H](CCC(N)=O)C(=O)NC(C)(C)C(=O)N[C@@H](CC(=O)O)C(=O)N[C@@H](Cc1ccccc1)C(=O)N[C@H](C(=O)N[C@@H](CCC(=O)O)C(=O)N[C@@H](Cc1ccncc1)C(=O)N[C@@H](CC(C)C)C(=O)N[C@@H](CC(C)C)C(=O)N[C@@H](C)C(=O)NCC(=O)NCC(=O)N1CCC[C@H]1C(=O)N[C@@H](CO)C(=O)N[C@@H](CO)C(=O)NCC(=O)N[C@@H](C)C(=O)N1CCC[C@H]1C(=O)N1CCC[C@H]1C(=O)N1CCC[C@H]1C(=O)N[C@@H](CO)C(N)=O)C(C)C)[C@@H](C)CC [Example 49] | 0.0156 nM | > 5000 nM | 2860 nM |
| CC[C@H](C)[C@H](NC(=O)[C@H](Cc1ccccc1)NC(=O)[C@@H](NC(=O)CNC(=O)[C@H](CCC(=O)O)NC(=O)C(C)(C)NC(=O)[C@@H](N)Cc1ccc(O)cc1)[C@@H](C)O)C(=O)N[C@@H](CO)C(=O)N[C@@H](CC(=O)O)C(=O)N[C@@H](Cc1ccc(O)cc1)C(=O)N[C@@H](CO)C(=O)N[C@H](C(=O)N[C@@](C)(CC(C)C)C(=O)N[C@@H](CC(C)C)C(=O)N[C@@H](CC(=O)O)C(=O)N[C@@H](CCCCN)C(=O)N[C@@H](CCCCNC(=O)COCCOCCNC(=O)COCCOCCNC(=O)CC[C@H](NC(=O)CCCCCCCCCCCCCCCCCCC(=O)O)C(=O)O)C(=O)N[C@@H](Cc1c[nH]cn1)C(=O)N[C@@H](CCC(N)=O)C(=O)NC(C)(C)C(=O)N[C@@H](CC(=O)O)C(=O)N[C@@H](Cc1ccccc1)C(=O)N[C@H](C(=O)N[C@@H](CCC(=O)O)C(=O)N[C@@H](Cc1ccncc1)C(=O)N[C@@H](CC(C)C)C(=O)N[C@@H](CC(C)C)C(=O)N[C@@H](CCC(=O)O)C(=O)N[C@H](C(=O)NCC(=O)N1CCC[C@H]1C(=O)N[C@@H](CO)C(=O)N[C@@H](CO)C(=O)NCC(=O)N[C@@H](C)C(=O)N1CCC[C@H]1C(=O)N1CCC[C@H]1C(=O)N1CCC[C@H]1C(=O)N[C@@H](CO)C(N)=O)[C@@H](C)O)C(C)C)[C@@H](C)CC [Example 45] (H-Y[Aib]EGTFISDYSI[αMeL]LDKK([AEEA-AEEA-γGlu-C20 diacid])HQ[Aib]DFVE[4Pal]LLETGPSSGAPPPS-NH2) | 0.049 nM | > 5000 nM | 1690 nM |
